Measurements reported in patent publication US20040162235A1, “Delivery of siRNA to cells using polyampholytes” (priority 2003, published 2004).
Read-outs that look alike come from different tables or passages of the source. *1 amine or outer side, *2 acyl side, *3 side chain or, on linkers, in order; H or OH if unused. Where a SMILES comes first, the peptide text is derived from it. Where no end group is shown, it is not given here. The star is where a group is joined. Suc = O=C(CCC(=O)[*:2])[*:1]; X1 = C/C(C(=O)O)=C(\C)C(=O)*

Experiments:
[1] = Red blood cell (RBC) hemolysis assay; format: cell-based; details: 37° C., read-out: Percent Hemolysis; for hemolysis at 30 min: red blood cells (washed, harvested from whole blood)
Experimental: C. […] RBCs were harvested by centrifuging whole blood for 4 min. They were washed three times with 100 mM dibasic sodium phosphate at the desired pH, and resuspended in the same buffer to yield the initial volume. They were diluted 10 times in the same buffer, and 200 μL of this suspension was used for each tube. This yields […] RBCs per tube. Each tube contained 800 μL of buffer, 200 μL of the RBC suspension, and the peptide with or without polymer. Each sample was then repeated to verify reproducibility. The tubes were incubated for 30 minutes in a 37° C. water bath. They were spun for 5 min at full speed in the microcentrifuge. Lysis was determined by measuring the absorbance of the supernatant at 541 nm, reflecting the amount of hemoglobin that had been released into the supernatant. Percent hemolysis was calculated assuming 100% lysis to be measured by the hemoglobin released by the red blood cells in water; controls of RBCs in buffer with no peptide were also run.

[2] = Lability at pH 5: conversion of maleamic acid to amine and anhydride, followed by TNBS; format: physicochemical; details: sodium acetate buffer pH 5
Experimental: A. DM-poly-L-lysine: Dimethyl maleamic modified poly-L-lysine (10 mg/mL) was incubated in 10 mM sodium acetate buffer pH 5. At various times, aliquots (10 μg) were removed and added to 0.5 mL of 100 mM borax solution containing 0.4 mM trinitrobenzenesulfonate (TNBS). After 30 min, the absorbance of the solution at 420 nm was measured. To determine the concentration of amines at each time point, the extinction coefficient was determined for the product of TNBS and poly-L-lysine. Using this extinction coefficient we were able to calculate the amount of amines and maleamic groups at each time point. A plot of In (At/A0) as a function of time was a straight line whose slope was the negative of the rate constant for the conversion of maleamic acid to amine and anhydride, where At is the concentration of maleamic acid at a time t and A0 is the initial concentration of maleamic acid. For two separate experiments we calculated rate constants of […] which correspond to half lives of roughly 10 and 4 minutes, respectively.
B. DM-KL3: Dimethyl maleamic modified KL3 (0.1 mg/mL) was incubated in 40 mM sodium acetate buffer pH 5 and 1 mM cetyltrimetylammonium bromide. At various times, 10 μg aliquots were removed and added to 0.05 mL 1 M borax solution containing 4 mM TNBS. After 30 min, the absorbance of the solution at 420 nm was measured. […]

| Compound | hemolysis ([1]; pH 5.4, 30 minutes) [%] | hemolysis ([1]; pH 7.5, 30 minutes) [%] | half-life [2] [min] | rate constant for the conversion of maleamic acid to amine and anhydride [2] [min⁻¹] | hemolysis at 30 min ([1]; pH 5.4, 30 minutes) [%] | hemolysis at 30 min ([1]; pH 7.5, 30 minutes) [%] |
| --- | --- | --- | --- | --- | --- | --- |
| C/C(C(=O)O)=C(\C)C(=O)NCCCC[C@H](NC(=O)/C(C)=C(/C)C(=O)O)C(=O)N[C@@H](CC(C)C)C(=O)N[C@@H](CC(C)C)C(=O)N[C@@H](CCCCNC(=O)/C(C)=C(/C)C(=O)O)C(=O)N[C@@H](CC(C)C)C(=O)N[C@@H](CC(C)C)C(=O)N[C@@H](CC(C)C)C(=O)N[C@@H](CCCCNC(=O)/C(C)=C(/C)C(=O)O)C(=O)N[C@@H](CC(C)C)C(=O)N[C@@H](Cc1c[nH]c2ccccc12)C(=O)N[C@@H](CC(C)C)C(=O)N[C@@H](CCCCNC(=O)/C(C)=C(/C)C(=O)O)C(=O)N[C@@H](CC(C)C)C(=O)N[C@@H](CC(C)C)C(=O)N[C@@H](CCCCNC(=O)/C(C)=C(/C)C(=O)O)C(=O)N[C@@H](CC(C)C)C(=O)N[C@@H](CC(C)C)C(=O)N[C@@H](CC(C)C)C(=O)N[C@@H](CCCCNC(=O)/C(C)=C(/C)C(=O)O)C(=O)N[C@@H](CC(C)C)C(=O)N[C@@H](CC(C)C)C(=O)O [DM-KL3] (X1-K(X1)LLK(X1)LLLK(X1)LWLK(X1)LLK(X1)LLLK(X1)LL-OH; N-terminus and C-terminus assumed) | 37 | 4.3 | ~8 | 0.087 |  |  |
| CC[C@H](C)[C@H](NC(=O)CN)C(=O)NCC(=O)N[C@@H](C)C(=O)N[C@H](C(=O)N[C@@H](CC(C)C)C(=O)N[C@@H](CCCCN)C(=O)N[C@H](C(=O)N[C@@H](CC(C)C)C(=O)N[C@H](C(=O)N[C@H](C(=O)NCC(=O)N[C@@H](CC(C)C)C(=O)N1CCC[C@H]1C(=O)N[C@@H](C)C(=O)N[C@@H](CC(C)C)C(=O)N[C@H](C(=O)N[C@@H](CO)C(=O)N[C@@H](Cc1c[nH]c2ccccc12)C(=O)N[C@H](C(=O)N[C@@H](CCCCN)C(=O)N[C@@H](CCCNC(=N)N)C(=O)N[C@@H](CCCCN)C(=O)N[C@@H](CCCNC(=N)N)C(=O)N[C@@H](CCC(N)=O)C(=O)N[C@@H](CCC(N)=O)C(N)=O)[C@@H](C)CC)[C@@H](C)CC)[C@@H](C)O)[C@@H](C)O)C(C)C)C(C)C [Melittin, reference compound] |  |  |  |  | 85 | 92 |
| CC(C)C[C@H](NC(=O)[C@H](CC(C)C)NC(=O)[C@H](CCCCNC(=O)CCC(=O)O)NC(=O)[C@H](CC(C)C)NC(=O)[C@H](CC(C)C)NC(=O)[C@H](CC(C)C)NC(=O)[C@H](CCCCNC(=O)CCC(=O)O)NC(=O)[C@H](CC(C)C)NC(=O)[C@H](CC(C)C)NC(=O)[C@H](CCCCNC(=O)CCC(=O)O)NC(=O)[C@H](CC(C)C)NC(=O)[C@H](Cc1c[nH]c2ccccc12)NC(=O)[C@H](CC(C)C)NC(=O)[C@H](CCCCNC(=O)CCC(=O)O)NC(=O)[C@H](CC(C)C)NC(=O)[C@H](CC(C)C)NC(=O)[C@H](CC(C)C)NC(=O)[C@H](CCCCNC(=O)CCC(=O)O)NC(=O)[C@H](CC(C)C)NC(=O)[C@H](CC(C)C)NC(=O)[C@H](CCCCNC(=O)CCC(=O)O)NC(=O)CCC(=O)O)C(=O)O [Succinyl-KL3] (Suc-K(Suc)LLK(Suc)LLLK(Suc)LWLK(Suc)LLK(Suc)LLLK(Suc)LL-OH; N-terminus and C-terminus assumed) | 2 | 1.3 |  |  |  |  |
| KLLKLLLKLWLKLLKLLLKLL [KL3] | 83 | 62 |  |  |  |  |
